Laboratory results taken from ChEMBL document CHEMBL1240298, “Features of selective kinase inhibitors” (Chem Biol, 2005).

Columns and labels:
[1] = molecular target: T1, Tyrosine-protein kinase ITK/TSK (Homo sapiens, UniProt Q08881)
T1 sequence (Q08881 whole entry): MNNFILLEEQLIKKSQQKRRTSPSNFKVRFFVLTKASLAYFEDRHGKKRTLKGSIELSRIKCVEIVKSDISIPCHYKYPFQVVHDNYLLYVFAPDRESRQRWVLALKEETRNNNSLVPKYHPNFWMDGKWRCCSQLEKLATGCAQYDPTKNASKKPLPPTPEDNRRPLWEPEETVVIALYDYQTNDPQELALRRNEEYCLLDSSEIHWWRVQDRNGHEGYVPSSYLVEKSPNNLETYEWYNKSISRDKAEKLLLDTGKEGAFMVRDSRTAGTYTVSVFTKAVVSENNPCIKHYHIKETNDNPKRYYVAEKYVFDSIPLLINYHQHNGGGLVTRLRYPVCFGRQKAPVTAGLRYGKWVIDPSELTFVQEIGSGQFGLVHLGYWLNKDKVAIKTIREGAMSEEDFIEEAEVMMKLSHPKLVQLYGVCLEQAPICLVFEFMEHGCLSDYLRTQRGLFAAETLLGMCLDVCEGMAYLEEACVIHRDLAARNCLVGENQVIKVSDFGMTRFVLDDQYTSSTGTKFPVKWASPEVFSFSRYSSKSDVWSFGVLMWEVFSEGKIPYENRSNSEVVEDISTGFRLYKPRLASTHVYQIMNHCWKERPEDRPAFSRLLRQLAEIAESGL

[2] = molecular target: Tyrosine-protein kinase Lck (Homo sapiens, UniProt P06239)
Sequence of Tyrosine-protein kinase Lck (P06239 whole entry): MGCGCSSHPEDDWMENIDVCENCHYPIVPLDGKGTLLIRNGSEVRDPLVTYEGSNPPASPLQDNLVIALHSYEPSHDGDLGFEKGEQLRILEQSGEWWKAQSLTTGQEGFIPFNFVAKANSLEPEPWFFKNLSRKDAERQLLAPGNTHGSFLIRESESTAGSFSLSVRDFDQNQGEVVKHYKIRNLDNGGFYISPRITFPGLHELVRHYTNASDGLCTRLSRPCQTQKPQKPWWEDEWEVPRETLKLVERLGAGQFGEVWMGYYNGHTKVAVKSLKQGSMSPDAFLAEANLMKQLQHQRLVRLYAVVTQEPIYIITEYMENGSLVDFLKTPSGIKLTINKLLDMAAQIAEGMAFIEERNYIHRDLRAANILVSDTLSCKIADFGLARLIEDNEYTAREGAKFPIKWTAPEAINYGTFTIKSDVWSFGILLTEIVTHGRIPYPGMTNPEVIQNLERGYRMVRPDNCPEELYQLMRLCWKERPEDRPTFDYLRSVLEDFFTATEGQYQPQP

Row | Compound | Ki [1] [nM] | Ki [2] [nM]
1 | COc1cc(C)c(Sc2cnc(NC(=O)c3ccc(CNC(C)C(C)(C)C)cc3)s2)cc1C(=O)N1CCN(C(C)=O)CC1 (configuration not stated) | 16 | 
2 | Cc1cccc(Cl)c1NC(=O)c1ccc2nc(NC(=O)NC(C)(C)C)sc2c1 |  | 4
